Earlier results as cited in patent US20060211660A1, “Combination therapy for topical application in the treatment of dry eye syndrome” (priority 2005, published 2006).
Read-outs that look alike come from different tables or passages of the source.

Columns and labels:
[1] = for androgenic (virilizing) activity relative to standards: relative to standards (typically testosterone)
[2] = for anabolic activity relative to standards: relative to standards (typically testosterone)

SMILES	androgenic (virilizing) activity relative to standards [1]	anabolic activity relative to standards [2]	further results
C[C@]1(O)CC[C@H]2[C@@H]3CCC4=CC(=O)CC[C@]4(C)[C@@]3(F)[C@@H](O)C[C@@]21C [fluoxymesterone]	augmented	–	–
C[C@]12CC[C@@H]3c4ccc(O)cc4CC[C@H]3[C@@H]1C[C@@H](O)[C@@H]2O [estriol]	–	–	improvement in corneal lens transmittance and autofluorescence (post-menopausal patients, low systemic dose 0.25 mg per day): varying or marginal improvement
C[C@]12CCC(=O)C[C@@H]1CC[C@@H]1[C@@H]2CC[C@]2(C)[C@@H](O)CC[C@@H]12 [dihydrotestosterone]	unchanged	enhanced	–
C[C@]12CC[C@@H]3c4ccc(O)cc4CC[C@H]3[C@@H]1CC[C@@H]2O [17-β-estradiol]	–	–	improvement in corneal lens transmittance and autofluorescence (0.00025% drops every 6 hours, women already taking 2 mg estriol valerate daily by mouth): varying or marginal improvement
C[C@]12C/C(=C/O)C(=O)C[C@@H]1CC[C@@H]1[C@@H]2CC[C@@]2(C)[C@H]1CC[C@]2(C)O [oxymetholone]	unchanged	enhanced	–
C[C@]12Cc3c[nH]nc3C[C@@H]1CC[C@@H]1[C@@H]2CC[C@@]2(C)[C@H]1CC[C@]2(C)O [stanozolol]	decreased	increased	–
C[C@]12COC(=O)C[C@@H]1CC[C@@H]1[C@@H]2CC[C@@]2(C)[C@H]1CC[C@]2(C)O [oxandrolone, 17 alpha-methyl-17β-hydroxy-2-oxa-5 alpha-androstan-3-one]	decreased	increased	anabolic activity, percent of that of methyltestosterone ([2]; relative to methyltestosterone): 322%; androgenic activity, percent of that of methyltestosterone ([1]; relative to methyltestosterone): 24%
CCC(=O)O[C@H]1CC[C@H]2[C@@H]3CCC4=CC(=O)CC[C@@H]4[C@H]3CC[C@]12C [19-nortestosterone propionate]	decreased	unchanged	–
